Activity calls are given as the source filed them. No cut-off for these calls is given here. Starred links: 1 amine or outer side, 2 acyl side, 3 side chain; linkers in the order of their positions; H or OH if unused. Positions of bridges follow the written chain, without caps; N, C: chain ends. Non-standard residues stand in square brackets, D forms with d. Residues, ends and D or L forms follow the SMILES beside them. X2 = C[C@](CCCCCCCC=[*:3])(N[*:1])C(=O)[*:2]; X1 = C[C@@](CCCCC=[*:3])(N[*:1])C(=O)[*:2]
Columns and labels:
[1] = Hemolytic activity at human Erythrocyte assessed as hemolysis at 100 microg/ml; assay type: toxicity, cell-based; conditions: erythrocytes, at 100 µg/mL, read-out: Activity
HaCaT = test: Cytotoxicity against human HaCaT cells assessed as survival rate at 100 microg/ml; assay type: functional; conditions: read-out: Survival
Peritoneal macrophage [2] = test: Antiinflammatory activity in mouse Peritoneal macrophage cells assessed as inhibition of LPS-induced IL-6 production at 20 microg/ml incubated for 6 hrs by ELISA analysis; assay type: functional, cell-based; conditions: dose 20.0 µg/ml
Staphylococcus aureus = test: Antimicrobial activity against Staphylococcus aureus CMCC 26003 at 5 times MIC measured at 180 mins; assay type: functional, organism-based
Peritoneal macrophage [3] = test: Cytotoxicity against mouse Peritoneal macrophage cells assessed as survival rate at 100 microg/ml; assay type: functional; conditions: read-out: Survival
Peritoneal macrophage [4] = test: Antiinflammatory activity in mouse Peritoneal macrophage cells assessed as inhibition of LPS-induced TNF-alpha production at 20 microg/ml incubated for 6 hrs by ELISA analysis; assay type: functional, cell-based; conditions: dose 20.0 µg/ml

Row | Compound | hemolysis at 100 microg/ml [1] [%] | viability at 100 µg/mL (HaCaT) [%] | Activity (Peritoneal macrophage [2]) | Activity (Staphylococcus aureus) | viability at 100 µg/mL (Peritoneal macrophage [3]) [%] | Activity (Peritoneal macrophage [4])
1 | CC[C@H](C)[C@@H]1NC(=O)[C@H](CCCNC(=N)N)NC(=O)[C@H](CO)NC(=O)[C@H](Cc2c[nH]cn2)NC(=O)[C@H](CCCNC(=N)N)NC(=O)[C@H](CC(C)C)NC(=O)[C@H](C(C)C)NC(=O)[C@H](CCCNC(=N)N)NC(=O)CNC(=O)[C@H](CC(C)C)NC(=O)[C@H](CCC(N)=O)NC(=O)[C@H](CCCCN)NC(=O)[C@H](CCCNC(=N)N)NC(=O)[C@H](C(C)C)NC(=O)[C@H](CCCCN)NC(=O)[C@H](CCCCN)NC(=O)[C@H](Cc2ccccc2)NC(=O)[C@@H](N)CSSC[C@@H](C(=O)O)NC(=O)[C@H](Cc2ccccc2)NC(=O)[C@H](CCCNC(=N)N)NC(=O)[C@H](CCSC)NC(=O)[C@H](CCCNC(=N)N)NC(=O)CNC(=O)CNC(=O)[C@H](C(C)C)NC(=O)[C@H]([C@@H](C)O)NC1=O (H-CFKKVRKQLGRVLRHSRITVGGRMRFC-OH; disulfide 1-27) | < 5 | > 80 | Active | inactive | > 80 | Active
2 | CC[C@H](C)[C@H](NC(=O)[C@H](CCCNC(=N)N)NC(=O)[C@H](CO)NC(=O)[C@H](Cc1c[nH]cn1)NC(=O)[C@H](CCCNC(=N)N)NC(=O)[C@]1(C)CCCC/C=C\CCCC[C@](C)(NC(=O)[C@H](CCC(N)=O)NC(=O)[C@H](CCCCN)NC(=O)[C@H](CCCNC(=N)N)NC(=O)[C@@H](NC(=O)[C@H](CCCCN)NC(=O)[C@H](CCCCN)NC(=O)[C@@H](N)Cc2ccccc2)C(C)C)C(=O)NCC(=O)N[C@@H](CCCNC(=N)N)C(=O)N[C@@H](C(C)C)C(=O)N1)C(=O)N[C@H](C(=O)N[C@H](C(=O)NCC(=O)NCC(=O)N[C@@H](CCCNC(=N)N)C(=O)N[C@@H](CCSC)C(=O)N[C@@H](CCCNC(=N)N)C(=O)N[C@@H](Cc1ccccc1)C(=O)O)C(C)C)[C@@H](C)O (H-FKKVRKQ[X1]GRV[X1]RHSRITVGGRMRF-OH; staple (Z) 8-12) | < 5 |  | Active | inactive |  | Active
3 | CC[C@H](C)[C@H](NC(=O)[C@H](CCCNC(=N)N)NC(=O)[C@H](CO)NC(=O)[C@H](Cc1c[nH]cn1)NC(=O)[C@]1(C)CCCC/C=C\CCCCCCC[C@@](C)(NC(=O)[C@H](CCCNC(=N)N)NC(=O)[C@@H](NC(=O)[C@H](CCCCN)NC(=O)[C@H](CCCCN)NC(=O)[C@@H](N)Cc2ccccc2)C(C)C)C(=O)N[C@@H](CCC(N)=O)C(=O)N[C@@H](CC(C)C)C(=O)NCC(=O)N[C@@H](CCCNC(=N)N)C(=O)N[C@@H](C(C)C)C(=O)N[C@@H](CC(C)C)C(=O)N1)C(=O)N[C@H](C(=O)N[C@H](C(=O)NCC(=O)NCC(=O)N[C@@H](CCCNC(=N)N)C(=O)N[C@@H](CCSC)C(=O)N[C@@H](CCCNC(=N)N)C(=O)N[C@@H](Cc1ccccc1)C(=O)O)C(C)C)[C@@H](C)O (H-FKKVR[X2]QLGRVL[X1]HSRITVGGRMRF-OH; staple (Z) 6-13) | < 5 |  | Active | inactive |  | Active
4 | CC[C@H](C)[C@H](NC(=O)[C@H](CCCNC(=N)N)NC(=O)[C@H](CO)NC(=O)[C@H](Cc1c[nH]cn1)NC(=O)[C@H](CCCNC(=N)N)NC(=O)[C@H](CC(C)C)NC(=O)[C@@H](NC(=O)[C@H](CCCNC(=N)N)NC(=O)CNC(=O)[C@]1(C)CCCC/C=C\CCCC[C@](C)(NC(=O)[C@H](CCCCN)NC(=O)[C@H](CCCCN)NC(=O)[C@@H](N)Cc2ccccc2)C(=O)N[C@@H](CCCNC(=N)N)C(=O)N[C@@H](CCCCN)C(=O)N[C@@H](CCC(N)=O)C(=O)N1)C(C)C)C(=O)N[C@H](C(=O)N[C@H](C(=O)NCC(=O)NCC(=O)N[C@@H](CCCNC(=N)N)C(=O)N[C@@H](CCSC)C(=O)N[C@@H](CCCNC(=N)N)C(=O)N[C@@H](Cc1ccccc1)C(=O)O)C(C)C)[C@@H](C)O (H-FKK[X1]RKQ[X1]GRVLRHSRITVGGRMRF-OH; staple (Z) 4-8) | < 5 |  | Active | inactive |  | Active
5 | CC[C@H](C)[C@H](NC(=O)[C@H](CCCNC(=N)N)NC(=O)[C@H](CO)NC(=O)[C@H](Cc1c[nH]cn1)NC(=O)[C@H](CCCNC(=N)N)NC(=O)[C@H](CC(C)C)NC(=O)[C@@H](NC(=O)[C@H](CCCNC(=N)N)NC(=O)CNC(=O)[C@H](CC(C)C)NC(=O)[C@H](CCC(N)=O)NC(=O)[C@]1(C)CCCC/C=C\CCCC[C@](C)(NC(=O)[C@@H](N)Cc2ccccc2)C(=O)N[C@@H](CCCCN)C(=O)N[C@@H](C(C)C)C(=O)N[C@@H](CCCNC(=N)N)C(=O)N1)C(C)C)C(=O)N[C@H](C(=O)N[C@H](C(=O)NCC(=O)NCC(=O)N[C@@H](CCCNC(=N)N)C(=O)N[C@@H](CCSC)C(=O)N[C@@H](CCCNC(=N)N)C(=O)N[C@@H](Cc1ccccc1)C(=O)O)C(C)C)[C@@H](C)O (H-F[X1]KVR[X1]QLGRVLRHSRITVGGRMRF-OH; staple (Z) 2-6) | < 5 |  | Active | inactive |  | Active
6 | CC[C@H](C)[C@H](NC(=O)[C@H](CCCNC(=N)N)NC(=O)[C@H](CO)NC(=O)[C@H](Cc1c[nH]cn1)NC(=O)[C@H](CCCNC(=N)N)NC(=O)[C@H](CC(C)C)NC(=O)[C@@H](NC(=O)[C@H](CCCNC(=N)N)NC(=O)CNC(=O)[C@]1(C)CCCC/C=C\CCCCCCC[C@@](C)(N)C(=O)N[C@@H](CCCCN)C(=O)N[C@@H](CCCCN)C(=O)N[C@@H](C(C)C)C(=O)N[C@@H](CCCNC(=N)N)C(=O)N[C@@H](CCCCN)C(=O)N[C@@H](CCC(N)=O)C(=O)N1)C(C)C)C(=O)N[C@H](C(=O)N[C@H](C(=O)NCC(=O)NCC(=O)N[C@@H](CCCNC(=N)N)C(=O)N[C@@H](CCSC)C(=O)N[C@@H](CCCNC(=N)N)C(=O)N[C@@H](Cc1ccccc1)C(=O)O)C(C)C)[C@@H](C)O (H-[X2]KKVRKQ[X1]GRVLRHSRITVGGRMRF-OH; staple (Z) 1-8) | < 5 |  | Active | inactive |  | Active
7 | H-GRVLRHSRITVGGRMRF-OH |  |  |  | inactive |  | 
8 | H-KVRKQLGRVLRHSRITVGGRMRF-OH |  |  |  | inactive |  | 
9 | H-QLGRVLRHSRITVGGRMRF-OH |  |  |  | inactive |  | 
10 | H-RHSRITVGGRMRF-OH |  |  |  | inactive |  | 
11 | H-RKQLGRVLRHSRITVGGRMRF-OH |  |  |  | inactive |  | 
12 | H-RRSRFGRFFKKVR-NH2 |  |  |  | inactive |  | 
13 | H-RRSRFGRFFKKVRKQ-NH2 |  |  |  | inactive |  | 
14 | H-RRSRFGRFFKKVRKQLGRVLRHSRITVGGRMRF-OH |  |  |  | inactive |  | 
15 | H-VLRHSRITVGGRMRF-OH |  |  |  | inactive |  | 

From ChEMBL document CHEMBL6078680, “Improving the Stability and Anti-Infective Activity of Sea Turtle AMPs Using Multiple Structural Modification Strategies” (J Med Chem, 2024)
